From patent US5498624A, “Selected pyrazolyl derivatives” (Monsanto Company, priority 1995, dated 1996)

Legend:
[1] = tested on: Pseudocercosporella herpotrichoides var. tritici; test: Wheat True Eyespot In Vitro Assay (WES In Vitro); type: cell-based; set-up: key: 0: no inhibition of mycelial growth; 1: slight inhibition of mycelial growth; 2: moderate inhibition of mycelial growth; 3: strong inhibition of mycelial growth; details: 3 days at 19° C.
Procedure: A) Pathogen/Inoculum Production--A mycelial transfer of Pseudocercosporella herpotrichoides var. tritici is placed onto potato dextrose agar plates and allowed to grow for 40 days at 20 ° C., without light. Five agar discs are taken from the actively growing culture and are placed equidistant, mycelial side down, onto a water agar plate, and incubated at 10 ° C. with 10 hours of fluorescent light per day. After 5 days of incubation, sporulation on the transferred discs begins, and plates are flooded with 3-5 mls sterile deionized water. One-half ml aliquots are taken from the resulting spore suspension and placed on new water agar plates. Spores are spread across plates using a bent glass rod and incubated at 10 ° C. with 10 hour fluorescent light periods per day. In 5-10 days, a lawn of spores is produced and can be "harvested".
B) Compound Preparation and Test Execution--200 μl of 1/4 strength potato dextrose broth is placed in each well of a 96 well microtiter plate. […] The commercial standard used is prochloraz at equivalent rates.
C) Inoculation/Incubation--50 μl of a 1×10^6 spores/ml suspension harvested using the method above is added to each well. The 96 well plates are incubated for 3 days at 19° C. in the dark.
(§1) D) Evaluation--After incubation, each well is visually assessed for growth inhibition on the following 0-3 scale:
(§2) 0=no inhibition of mycelial growth
(§3) 1=slight inhibition of mycelial growth
(§4) 2=moderate inhibition of mycelial growth
(§5) 3=strong inhibition of mycelial growth

Succinate Dehydrogenase = test: Enzyme Inhibition I-50 (WGB): Succinate Dehydrogenase Assay using Septoria nodorum mitochondria; type: biochemical; details: DCPIP reduction, read-out: WGB enzyme I-50
Procedure: Succinate Dehydrogenase Assay using Septoria nodorum mitochondria--Septorianodorum mycelia are prepared from spores via shake culture for 40-48 hours in 3% malt extract at room temperature. The mycelia are harvested by centrifugation and the pellets obtained are stored in the -80° C. freezer until use.
Mitochondria are isolated by a method adapted from White (Biochem. Biophys. Res. Commun. 44 (1971) 1212-19). Fifteen to twenty grams of frozen mycelia are resuspended in a 250 mL medium containing 0.25M sucrose, 5 mM tetrasodium ethylenediamine tetraacetic acid (Na4 EDTA), pH 7.0 containing 1.5 g/liter bovine serum albumin (BSA) and placed in a Bead Beater chamber (BioSpec Products, Bartlesville, Okla.). Zirconium oxide beads (0.5 mm) are added to finish filling the chamber. Four 30s beats separated by 2 rain temperature equilibration periods on ice are used to break the mycelia. The homogenate is centrifuged for 20 min at 3000×g and 4° C. to remove debris. The supernatant is recentrifuged at 20,000×g for 20 min at 4° C. The resulting pellet is resuspended in BSA-free sucrose/EDTA medium (40 mL) using a glass tissue homogenizer and teflon pestle and recentrifuged at 27,000×g for 15 min at 4° C. The pellet is resuspended in BSA-free sucrose/EDTA medium (~3 mL) and used for SDH assays.
The enzyme activity is measured at […] in a solution containing 50 mM potassium phosphate, pH7.2; 1 mM potassium cyanide; 45 μM 2,6-dichlorophenol indophenol (DCPIP) and 17 mM disodium succinate in a final volume of 1 mL with a Perkin-Elmer Lambda 7 ultraviolet-visible spectrophotometer. The test compounds are added as acetone solutions (final concentration of acetone less than or equal to 1%(v/v)). The mitochondrial preparations are used to initiate the reaction. All rates are corrected for succinate-independent dye reduction. Semilog plots of percentage inhibition versus test compound concentration are used to determine inhibition expressed as I50 (μM) which is the concentration required to inhabit the rate of DCPIP reduction by 50%. The commercial fungicide carboxin is used as a standard throughout [I50 (μM)=5.0±2.2; n=52].

Septoria nodorum = test: Wheat Glume Blotch (WGB) In Vitro; type: cell-based; set-up: key: 0: no inhibition of mycelial growth; 1: slight inhibition of mycelial growth; 2: moderate inhibition of mycelial growth; 3: strong inhibition of mycelial growth; details: 4-6 days at 25° C.
Procedure: A) Pathogen/Inoculum Production--The wheat glume blotch fungus, Septoria nodorum, is cultured on yeast/malt agar at 22° C. and 12 hours fluorescent light. Several sterile loops full of mature pycnidia produced on a 7 day old culture plates are added to 30 mls of 1/4 strength potato dextrose broth. After 15 minutes the suspension is stirred, and adjusted to a concentration of 3×10^5 spores/mi.
B) Compound Preparation and Test Execution--200 μl of 1/4 strength potato dextrose broth is placed in each well of a 96 well microtiter plate. […] The commercial standard used is flusilazole, at equivalent rates.
C) Inoculation/Incubation--50 μl of a 3×10^5 spores/ml suspension obtained using the method above is added to each well. The 96-well plate is incubated for 4-6 days at 25° C., 12 hours fluorescent light.
as §1, §2, §3, §4, §5

| SMILES | WES In vitro growth inhibition 0-3 scale ([1]; 0.1 ppm) | WES In vitro growth inhibition 0-3 scale ([1]; 0.5 ppm) | WES In vitro growth inhibition 0-3 scale ([1]; 5.0 ppm) | IC50 (Succinate Dehydrogenase) | WGB In Vitro growth inhibition 0-3 scale (Septoria nodorum; 0.1 ppm) | WGB In Vitro growth inhibition 0-3 scale (Septoria nodorum; 0.5 ppm) | WGB In Vitro growth inhibition 0-3 scale (Septoria nodorum; 5.0 ppm) |
| --- | --- | --- | --- | --- | --- | --- | --- |
| Cn1cc(C(=O)Nc2ccccc2[C@@H]2CCC[C@@H](C(F)(F)F)C2)c(C(F)F)n1 (relative stereo) [Number 6] | 0 | 0 | 2 | 520 nM | 0 | 0 | 1 |
| C[C@H]1CCC[C@H](c2ccccc2NC(=O)c2cn(C)nc2C(F)F)C1 (relative stereo) [Number 3, 1H-pyrazole-4-carboxamide, 3-(difluoromethyl)-1-methyl-N-[2-(3-methylcyclohexyl)phenyl]-, trans-] | 1 | 2 | 3 | 50 nM | 0 | 0 | 0 |
| CC[C@H]1CC[C@@H](c2ccccc2NC(=O)c2cn(C)nc2C(F)F)CC1 [Number 1, 1H-pyrazole-4-carboxamide, 3-(difluoromethyl)-N-[2-(4-ethylcyclohexyl)phenyl]-1-methyl-, cis-] | 0 | 3 | 3 | 15 nM | 0 | 3 | 3 |
| C[C@@H]1CCC[C@H](c2ccccc2NC(=O)c2cn(C)nc2C(F)F)C1 (relative stereo) [Number 2, 1H-pyrazole-4-carboxamide, 3-(difluoromethyl)-1-methyl-N-[2-(-3-methylcyclohexyl)phenyl]-, cis-] | 1 | 2 | 3 | 37 nM | 0 | 1 | 2 |
| Cn1cc(C(=O)Nc2ccccc2C2CCC(C)(C)CC2)c(C(F)F)n1 [Number 5, 1H-pyrazole-4-carboxamide, 3-(difluoromethyl)-N-(2-(4,4-dimethylcyclohexyl)phenyl]-1-methyl-] | 1 | 3 | 3 | 8 nM | 0 | 2 | 2 |
| Cn1cc(C(=O)Nc2ccccc2[C@H]2CC[C@H](C)CC2)c(C(F)(F)F)n1 [Number 4, 1H-pyrazole-4-carboxamide, 1-methyl-N-[2-(4-methylcyclohexyl)phenyl]-3-(trifluoromethyl)-, trans-] | 1 | 2 | 3 | 29 nM | 1 | 1 | 2 |
